Reference: US7205314B2, “Compounds for the treatment of dementia related diseases” (AstraZeneca AB, priority 2001, dated 2007)

melting point: 214 to 219 °C
Compound: COCCOc1ccc2c(C3C(=O)Nc4ccc(C#N)cc43)nccc2c1 (stereo not shown) [Example 3, 3-[6-(2-Methoxyethoxy)isoquinolin-1-yl]-2-oxo-2,3-dihydro-1H-indole-5-carbonitrile]
